Key:
Assay in all cases: whole plant or invertebrate
Format in all cases: in vivo
[1] = system: Mediterranean Fruitfly (Ceratitis capitata); settings: 120 h, egg and larval mortality after 5 days, read-out: mortality in comparison with untreated controls
[2] = system: Vetch Aphid (Megoura viciae); settings: foliar, 120 h, adult aphids, after 5 days, read-out: mortality in comparison with untreated controls
[3] = system: Southern Armyworm (Spodoptera eridania); settings: in Phaseolus lunatus, 96 h, larvae, 4 days after treatment, read-out: mortality in comparison with untreated controls
[4] = system: Diamond Back Moth (plutella xylostella); settings: in Brassica oleracea, foliar, leaf dip, 3rd instar larvae, 72 hours after treatment, read-out: mortality in comparison with untreated controls
[5] = system: Rice Brown Plant Hopper (Nilaparvata lugens); settings: adults, after 72 hours, read-out: mortality in comparison with untreated controls
[6] = system: Silverleaf Whitefly (Bemisia argentifolii); settings: 72 h, whitefly adults, 3 days after treatment, read-out: mortality in comparison with untreated controls
[7] = system: Orchid Thrips (dichromothrips corbetti); settings: 96 h, adult thrips, after 4 days, read-out: mortality in comparison with untreated controls
[8] = system: Cowpea Aphid (aphis craccivora); settings: spray, population reduction assessed after 24, 72 and 120 hours, read-out: mortality in comparison with untreated controls
[9] = system: Boll Weevil (Anthonomus grandis); settings: 120 h, egg and larval mortality after 5 days, read-out: mortality in comparison with untreated controls
[10] = system: Tobacco Budworm (Heliothis virescens); settings: in Gossypium hirsutum, 96 h, larvae, 4 days after treatment, read-out: mortality in comparison with untreated controls
[11] = system: Rice Green Leafhopper (Nephotettix virescens); settings: adults, after 72 hours, read-out: mortality in comparison with untreated controls
[12] = system: Red Spider Mite (Tetranychus kanzawai); settings: in Vigna unguiculata, 72 hours after treatment, read-out: mortality in comparison with untreated controls
[13] = system: Green Peach Aphid (Myzus persicae); settings: 120 h, after 5 days, read-out: mortality in comparison with untreated controls
[14] = system: Colorado Potato Beetle (Leptinotarsa decemlineata); settings: in Solanum melongena, foliar, 96 h, larvae, 4 days after treatment, read-out: mortality in comparison with untreated controls

CC(C)S(=Nc1c(-c2cc(Cl)c3c(c2)OCO3)c(C(F)(F)F)nn1-c1ncccn1)C(C)C [I.1-2, [4-(7-Chloro-1,3-benzodioxol-5-yl)-2-pyrimidin-2-yl-5-(trifluoromethyl)pyrazol-3-yl]imino-diisopropyl-λ^4-sulfane]
≥ 75%: mortality at 2500 ppm [1] | mortality at 2500 ppm [2] | mortality at 300 ppm [3] | mortality at 300 ppm [4] | mortality at 500 ppm [5] | mortality at 500 ppm [6] | mortality at 300 ppm [7] | mortality at 300 ppm [8] | mortality at 2500 ppm [9] | mortality at 2500 ppm [10] | mortality at 300 ppm [11]

FC(F)(F)c1cc(Cl)cc(-c2c(C(F)(F)F)nn(-c3ncccn3)c2-n2cccc2)c1 [I.1-7, 2-[4-[3-chloro-5-(trifluoromethyl)phenyl]-5-pyrrol-1-yl-3-(trifluoromethyl)pyrazol-1-yl]pyrimidine]
≥ 75%: mortality at 300 ppm [3] | mortality at 300 ppm [4] | mortality at 500 ppm [6] | mortality at 300 ppm [7] | mortality at 300 ppm [8] | mortality at 2500 ppm [10] | mortality at 300 ppm [11]

CCS(CC)=Nc1c(-c2cc(Cl)c3c(c2)OCO3)c(C(F)(F)F)nn1-c1ncccn1 [I.1-1, [4-(7-Chloro-1,3-benzodioxol-5-yl)-2-pyrimidin-2-yl-5-(trifluoromethyl)pyrazol-3-yl]imino-diethyl-λ^4-sulfane]
≥ 75%: mortality at 300 ppm [12] | mortality at 2500 ppm [1] | mortality at 2500 ppm [2] | mortality at 300 ppm [3] | mortality at 300 ppm [4] | mortality at 500 ppm [5] | mortality at 500 ppm [6] | mortality at 300 ppm [7] | mortality at 300 ppm [8] | mortality at 2500 ppm [9] | mortality at 2500 ppm [10] | mortality at 300 ppm [11]

CC(C)S(=Nc1c(-c2cc(Cl)cc(C(F)(F)F)c2)c(C(F)(F)F)nn1-c1ncccn1)C(C)C [I.1-5]
≥ 75%: mortality at 300 ppm [12] | mortality at 2500 ppm [1] | mortality at 2500 ppm [2] | mortality at 300 ppm [3] | mortality at 300 ppm [4] | mortality at 500 ppm [5] | mortality at 500 ppm [6] | mortality at 300 ppm [7] | mortality at 300 ppm [8] | mortality at 2500 ppm [9] | mortality at 2500 ppm [10] | mortality at 300 ppm [13] | mortality at 300 ppm [11] | mortality at 300 ppm [14]

CCNC(=O)N(C(=O)NCC)c1c(-c2cc(Cl)cc(C(F)(F)F)c2)c(C(F)(F)F)nn1-c1ncccn1 [I.1-9, 1-[4-[3-chloro-5-(trifluoromethyl)phenyl]-2-pyrimidin-2-yl-5-(trifluoromethyl)pyrazol-3-yl]-3-ethyl-1-(ethylcarbamoyl)urea]
≥ 75%: mortality at 500 ppm [5]

FC(F)(F)c1cc(Cl)cc(-c2c(C(F)(F)F)nn(-c3ncccn3)c2/N=N/Nc2ccccc2)c1 [I.1-10, N-[(E)-[4-[3-chloro-5-(trifluoromethyl)phenyl]-2-pyrimidin-2-yl-5-(trifluoromethyl)pyrazol-3-yl]azo]aniline]
≥ 75%: mortality at 2500 ppm [1] | mortality at 2500 ppm [2] | mortality at 300 ppm [3] | mortality at 300 ppm [4] | mortality at 300 ppm [8] | mortality at 2500 ppm [9] | mortality at 2500 ppm [10] | mortality at 300 ppm [13]

FC(F)(F)c1nn(-c2ncccn2)c(N=S2CCCC2)c1-c1cc(Cl)c2c(c1)OCO2 [I.1-3, 2-[4-(7-Chloro-1,3-benzodioxol-5-yl)-5-(thiolan-1-ylideneamino)-3-(trifluoromethyl)pyrazol-1-yl]pyrimidine]
≥ 75%: mortality at 300 ppm [12] | mortality at 2500 ppm [1] | mortality at 2500 ppm [2] | mortality at 300 ppm [3] | mortality at 300 ppm [4] | mortality at 500 ppm [5] | mortality at 500 ppm [6] | mortality at 300 ppm [7] | mortality at 300 ppm [8] | mortality at 2500 ppm [9] | mortality at 2500 ppm [10] | mortality at 300 ppm [11]

CCS(CC)=Nc1c(-c2cc(Cl)cc(C(F)(F)F)c2)c(C(F)(F)F)nn1-c1ncccn1 [I.1-4]
≥ 75%: mortality at 300 ppm [12] | mortality at 2500 ppm [1] | mortality at 2500 ppm [2] | mortality at 300 ppm [3] | mortality at 300 ppm [4] | mortality at 500 ppm [5] | mortality at 300 ppm [7] | mortality at 300 ppm [8] | mortality at 2500 ppm [9] | mortality at 2500 ppm [10] | mortality at 300 ppm [11]

Reference: patent publication US9174967B2, “Substituted pyrazole-containing compounds and their use as pesticides” (BASF SE, priority 2012, dated 2015)
